Earlier results, collected in US20250262166A1, “NANOPARTICLES COMPRISING ENZALUTAMIDE” (priority 2019, published 2025).

solubility in water: insoluble in water
SMILES: CNC(=O)c1ccc(N2C(=S)N(c3ccc(C#N)c(C(F)(F)F)c3)C(=O)C2(C)C)cc1F [Enzalutamide]
